The source of these data is article PMC8960621, “Solution speciation and human serum protein binding of indium(III) complexes of 8-hydroxyquinoline, deferiprone and maltol” (Journal of Biological Inorganic Chemistry, 2022).

The nature of data set [1]: Fraction of non-dissociated tris-ligand complex at 10 μM, pH 7.40 (UV-vis and speciation calculation). In kind it is physicochemical. To be noted: pH 7.4, constants determined at 0.20 M KCl. The source says:
As a first step, interaction of the tris-ligand In(III) complexes with various LMM blood serum components was investigated and compared to that of GaQ3 studied formerly in our research group. The LMM compounds are considered to be more mobile than the high molecular mass components (HMM) such as proteins, and generally their reaction is characterized by faster kinetics. The role of serum compounds might have importance on the distribution of the In(III) complexes since they may be responsible for (partial) displacement of the originally coordinated ligand and they can also form mixed-ligand complexes. […] All the measurements in this work were performed at 25 °C as most of the stability constants used for the modeling calculations published in the literature were determined at this temperature. UV–vis spectra recorded for the tris-ligand complexes at 10 μM concentration (see Fig. S1a for InQ3) in this buffer show 94%, 90% and < 20% non-dissociated InQ3, InD3 and InM3, respectively, which corresponds well to the fractions obtained using the stability constants determined at 0.20 M KCl: 90% (InQ3), 86% (InD3) and 9% InM3 and 6% InM^2+. […]
For the preparation of stock solutions and samples, Milli-Q water was used. Exact concentration of ligand stock solutions was determined via pH-potentiometric titrations (vide infra). […]

For data set [2], the target named is T1, HSA (Homo sapiens, UniProt P02768).
T1 construct: purchased Sigma-Aldrich A8763
The data set is described as follows: Fluorescence lifetime (TCSPC) of the complexes in the presence of HSA. The data set is classed as binding. The following applies: additional lifetime component in the presence of HSA (2–10 μM), 10 μM complex, pH 7.40. Here is the method:
The fluorescence lifetime of InQ3 was determined in the absence and presence of HSA. […] GaQ3 behaves similarly (Table 2), while lifetimes of InD3 were too short (τ ≤ 0.2 ns) for accurate determination with our instrument. By the addition of HSA to the complex, two additional lifetime components appeared for InQ3: τ3 = 5.7 ± 0.3 ns and τ4 = 13.8 ± 0.6 ns, which correspond to the HSA bound forms. […] The GaQ3 ‒ HSA system could be characterized with similar lifetime parameters (Table 2).
Fluorescence lifetime was measured on the same fluorometer equipped with a DeltaHub time-correlated single photon counting (TCSPC) controller applying NanoLED light sources N-300 (λmax = 300 nm) and N-350 (λmax = 355 nm) (Horiba Jobin Yvon). The background (obtained with blank samples) was subtracted from the decay of the samples. The program DAS6 (version 6.6.; Horiba, Jobin Yvon) was used for the analysis of the experimental fluorescence decays. The fluorescence intensity decay over time is described by a sum of exponentials,1 It=∑i=1nαiexp-t/τi where αi and τi are the normalized amplitude and lifetime of component i respectively. The quality of the fit was judged from a χ^2R value close to 1.0 and a random distribution of weighted residuals.

Data set [3] relates to HSA and Tf. The data set is described as follows: Complex - HSA - Tf ternary systems (three-dimensional fluorescence and UV-vis). The data set is classed as binding, human. The following applies: pH 7.40; for metal ion Tf bound: 10 μM complex, HSA 5.2 equiv., Tf 0.32 equiv.; for dissociation of the complex: 212 μM HSA and 12.8 μM Tf (ratio 1:21.2:1.28). As to the method:
The reliability of UV–vis and fluorescence spectroscopic techniques in the characterization of the mode of interaction of In(III) complexes with HSA and (apo)Tf was proven in the former sections. Therefore, as a continuation three-dimensional fluorescence and UV–vis spectra were recorded for InQ3 and GaQ3 in the presence of both HSA and Tf (Figs. 7 and S7).
In these experiments, the applied HSA-to-Tf ratio corresponds to their physiological ratio in blood serum (630:38). Figure 8 depicts the intensity changes of the ternary system (complex and both proteins) for InQ3 at λEX = 367 nm and λEM = 530 nm in comparison to the respective binary systems (complex and only one type of protein). Apparently, albumin binding of the complex is indeed achieved in the ternary system, although to a lower extent compared to the InQ3 – HSA binary system, and the Tf binding of In(III) becomes more significant at higher protein concentrations. Consequently, the measured intensity reduces parallel with the decreasing (free and albumin bound) InQ3 concentration. […] Based on these spectra, InQ3 and GaQ3 are at least partly HSA-bound. However, minor dissociation of the complexes is evidenced by the UV–vis spectra (Fig. S7) even at this ratio that is more advanced for InQ3 than for GaQ3 (ca. 30% and 10% metal ion is Tf bound, respectively). The differences between the two complexes become more pronounced by getting closer to the physiologically relevant protein concentrations. In the presence of 212 μM HSA and 12.8 μM Tf (ratio: 1:21.2:1.28), the fluorescence of InQ3 is diminished, as most of the complex decomposes and In(III) is bound to Tf. […] To mimic the blood protein concentrations, three-times higher values would be needed; however, under that conditions fluorometric detection becomes inadequate due to the too high absorbance and light scattering of the samples.
Three-dimensional spectra were recorded for ternary systems containing InQ3 or GaQ3, HSA and Tf in the wavelength range λEX = 250 – 450 nm and λEM = 300 – 700 nm. All three-dimensional spectra were corrected by residual fluorescence of the proteins, inner filter effect and self-absorbance.

“And” between values parts separate entries of the source, which are not always exact repeats. Equal values may be shown once.

T1 sequence (P02768 25-609): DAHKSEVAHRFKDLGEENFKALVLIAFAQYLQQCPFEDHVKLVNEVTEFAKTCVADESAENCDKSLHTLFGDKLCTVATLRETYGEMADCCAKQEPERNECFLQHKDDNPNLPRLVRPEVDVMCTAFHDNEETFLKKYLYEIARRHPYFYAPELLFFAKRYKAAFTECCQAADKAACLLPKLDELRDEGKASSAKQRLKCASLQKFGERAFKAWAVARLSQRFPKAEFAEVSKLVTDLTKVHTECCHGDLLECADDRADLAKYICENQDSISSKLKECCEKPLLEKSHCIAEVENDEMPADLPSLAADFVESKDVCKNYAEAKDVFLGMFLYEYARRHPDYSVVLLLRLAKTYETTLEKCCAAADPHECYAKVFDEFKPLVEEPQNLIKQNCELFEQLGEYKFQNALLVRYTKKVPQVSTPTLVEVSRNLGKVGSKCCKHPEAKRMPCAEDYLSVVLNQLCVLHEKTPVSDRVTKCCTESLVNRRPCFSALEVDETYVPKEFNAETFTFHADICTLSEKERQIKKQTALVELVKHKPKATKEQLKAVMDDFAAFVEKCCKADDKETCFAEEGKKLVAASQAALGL

In the case of `[In+3].[O-]c1cccc2cccnc12.[O-]c1cccc2cccnc12.[O-]c1cccc2cccnc12` [InQ3, Tris(8-Quinolinolato)indium(III)], in data set [1], the “fraction of tris-ligand complex obtained using the stability constants” value is listed as 90%. Besides, in data set [2], the τ3 was 5.7 ns and 5.7 ± 0.3 ns; the τ4 is 13.8 ns and 13.8 ± 0.6 ns. Further, in data set [3], the “metal ion Tf bound” value is “ca. 30%” and the “dissociation of the complex” value is recorded as “practically completely dissociated”.

For `Cc1c([O-])c(=O)ccn1C.Cc1c([O-])c(=O)ccn1C.Cc1c([O-])c(=O)ccn1C.[In+3]` [InD3], the “fraction of tris-ligand complex obtained using the stability constants” value in data set [1] is recorded as 86%.

With `[Ga+3].[O-]c1cccc2cccnc12.[O-]c1cccc2cccnc12.[O-]c1cccc2cccnc12` [GaQ3, Tris(8-Quinolinolato)gallium(III), reference compound], in data set [2], the τ3 is given as 5.0 ± 0.3 ns and the τ4 amounted to 14.0 ± 0.2 ns. In addition, in data set [3], the “metal ion Tf bound” value is on record as about 10% and the “dissociation of the complex” value is given as 25%.
